How the values were obtained:
MELK = MELK (Homo sapiens (Human), UniProt Q14680); test: KINOMEscan; type: binding; conditions: 1 uM
CDC2L2 = CDC2L2 (Homo sapiens (Human), UniProt Q9UQ88); test: KINOMEscan; type: binding; conditions: 1 uM
STK35 = STK35 (Homo sapiens (Human), UniProt Q8TDR2); test: KINOMEscan; type: binding; conditions: 1 uM
MAP4K4 = MAP4K4 (Homo sapiens (Human), UniProt O95819); test: KINOMEscan; type: binding; conditions: 1 uM
PRKCH = PRKCH (Homo sapiens (Human), UniProt P24723); test: KINOMEscan; type: binding; conditions: 1 uM
PRKCE = PRKCE (Homo sapiens (Human), UniProt Q02156); test: KINOMEscan; type: binding; conditions: 1 uM
INSR = INSR (Homo sapiens (Human), UniProt P06213); test: KINOMEscan; type: binding; conditions: 1 uM
EGFR (G719C) = EGFR (G719C) (Homo sapiens (Human), UniProt P00533, G719C); test: KINOMEscan; type: binding; conditions: 1 uM
[1] = target: JAK2 (JH1domain-catalytic) (Homo sapiens (Human), UniProt O60674); test: KINOMEscan; type: binding; conditions: 1 uM
CSK = CSK (Homo sapiens (Human), UniProt P41240); test: KINOMEscan; type: binding; conditions: 1 uM
[2] = qAC50 biological assay (Table 4)
ANKK1 = ANKK1 (Homo sapiens (Human), UniProt Q8NFD2); test: KINOMEscan; type: binding; conditions: 1 uM
CSNK1G3 = CSNK1G3 (Homo sapiens (Human), UniProt Q9Y6M4); test: KINOMEscan; type: binding; conditions: 1 uM
CAMK1D = CAMK1D (Homo sapiens (Human), UniProt Q8IU85); test: KINOMEscan; type: binding; conditions: 1 uM
MST4 = MST4 (Homo sapiens (Human), UniProt Q9P289); test: KINOMEscan; type: binding; conditions: 1 uM
STK33 = STK33 (Homo sapiens (Human), UniProt Q9BYT3); test: KINOMEscan; type: binding; conditions: 1 uM
CDC2L5 = CDC2L5 (Homo sapiens (Human), UniProt Q14004); conditions: 1 uM
SYK = SYK (Homo sapiens (Human), UniProt P43405); test: KINOMEscan; type: binding; conditions: 1 uM
BMX = BMX (Homo sapiens (Human), UniProt P51813); test: KINOMEscan; type: binding; conditions: 1 uM
NEK7 = NEK7 (Homo sapiens (Human), UniProt Q8TDX7); test: KINOMEscan; type: binding; conditions: 1 uM
STK16 = STK16 (Homo sapiens (Human), UniProt O75716); test: KINOMEscan; type: binding; conditions: 1 uM
CASK = CASK (Homo sapiens (Human), UniProt O14936); test: KINOMEscan; type: binding; conditions: 1 uM
NEK11 = NEK11 (Homo sapiens (Human), UniProt Q8NG66); test: KINOMEscan; type: binding; conditions: 1 uM
[3] = target: TYK2 (JH1domain-catalytic) (Homo sapiens (Human), UniProt P29597); test: KINOMEscan; type: binding; conditions: 1 uM
CSNK2A2 = CSNK2A2 (Homo sapiens (Human), UniProt P19784); test: KINOMEscan; type: binding; conditions: 1 uM
MARK4 = MARK4 (Homo sapiens (Human), UniProt Q96L34); test: KINOMEscan; type: binding; conditions: 1 uM
TBK1 = TBK1 (Homo sapiens (Human), UniProt Q9UHD2); test: KINOMEscan; type: binding; conditions: 1 uM
PKAC-beta = PKAC-beta (Homo sapiens (Human), UniProt P22694); test: KINOMEscan; type: binding; conditions: 1 uM
DMPK = DMPK (Homo sapiens (Human), UniProt Q09013); test: KINOMEscan; type: binding; conditions: 1 uM
[4] = target: EGFR (L747-S752del, P753S) (Homo sapiens (Human), UniProt P00533, DEL747-752/P753S); test: KINOMEscan; type: binding; conditions: 1 uM
ADCK3 = ADCK3 (Homo sapiens (Human), UniProt Q8NI60); test: KINOMEscan; type: binding; conditions: 1 uM
PIP5K2B = PIP5K2B (Homo sapiens (Human), UniProt P78356); test: KINOMEscan; type: binding; conditions: 1 uM
WEE2 = WEE2 (Homo sapiens (Human), UniProt P0C1S8); test: KINOMEscan; type: binding; conditions: 1 uM
FLT4 = FLT4 (Homo sapiens (Human), UniProt P35916); test: KINOMEscan; type: binding; conditions: 1 uM
NIM1 = NIM1 (Homo sapiens (Human), UniProt Q8IY84); test: KINOMEscan; type: binding; conditions: 1 uM
ALK (L1196M) = ALK (L1196M) (Homo sapiens (Human), UniProt Q9UM73, L1196M); test: KINOMEscan; type: binding; conditions: 1 uM
FLT3 (N841I) = FLT3 (N841I) (Homo sapiens (Human), UniProt P36888, N841I); test: KINOMEscan; type: binding; conditions: 1 uM
[5] = target: JAK1 (JH1domain-catalytic) (Homo sapiens (Human), UniProt P23458); test: KINOMEscan; type: binding; conditions: 1 uM
SRMS = SRMS (Homo sapiens (Human), UniProt Q9H3Y6); test: KINOMEscan; type: binding; conditions: 1 uM
CAMK2B = CAMK2B (Homo sapiens (Human), UniProt Q13554); test: KINOMEscan; type: binding; conditions: 1 uM
TGFBR1 = TGFBR1 (Homo sapiens (Human), UniProt P36897); test: KINOMEscan; type: binding; conditions: 1 uM

Sequence of CSNK2A2 (P19784 whole entry): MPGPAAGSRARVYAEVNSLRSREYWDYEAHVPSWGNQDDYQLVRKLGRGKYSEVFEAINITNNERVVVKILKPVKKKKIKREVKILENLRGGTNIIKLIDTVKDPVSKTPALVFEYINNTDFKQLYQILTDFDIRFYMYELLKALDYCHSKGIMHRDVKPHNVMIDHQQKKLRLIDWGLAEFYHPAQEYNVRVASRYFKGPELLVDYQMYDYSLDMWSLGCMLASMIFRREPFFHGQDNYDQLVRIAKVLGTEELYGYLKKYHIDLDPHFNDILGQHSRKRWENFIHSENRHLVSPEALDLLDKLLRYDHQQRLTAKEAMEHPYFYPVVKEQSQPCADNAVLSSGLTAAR
Sequence of PIP5K2B (P78356 whole entry): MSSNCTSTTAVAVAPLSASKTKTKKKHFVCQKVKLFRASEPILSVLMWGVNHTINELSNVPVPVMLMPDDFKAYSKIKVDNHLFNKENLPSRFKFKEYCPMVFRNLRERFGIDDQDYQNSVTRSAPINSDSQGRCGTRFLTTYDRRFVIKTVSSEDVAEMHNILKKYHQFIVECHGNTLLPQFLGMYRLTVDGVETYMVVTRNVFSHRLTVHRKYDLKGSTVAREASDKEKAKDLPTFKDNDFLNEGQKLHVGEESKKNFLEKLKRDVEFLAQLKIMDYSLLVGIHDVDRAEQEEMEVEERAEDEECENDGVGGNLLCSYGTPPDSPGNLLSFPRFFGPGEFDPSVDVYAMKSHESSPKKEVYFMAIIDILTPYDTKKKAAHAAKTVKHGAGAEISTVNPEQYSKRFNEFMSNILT
Sequence of STK33 (Q9BYT3 whole entry): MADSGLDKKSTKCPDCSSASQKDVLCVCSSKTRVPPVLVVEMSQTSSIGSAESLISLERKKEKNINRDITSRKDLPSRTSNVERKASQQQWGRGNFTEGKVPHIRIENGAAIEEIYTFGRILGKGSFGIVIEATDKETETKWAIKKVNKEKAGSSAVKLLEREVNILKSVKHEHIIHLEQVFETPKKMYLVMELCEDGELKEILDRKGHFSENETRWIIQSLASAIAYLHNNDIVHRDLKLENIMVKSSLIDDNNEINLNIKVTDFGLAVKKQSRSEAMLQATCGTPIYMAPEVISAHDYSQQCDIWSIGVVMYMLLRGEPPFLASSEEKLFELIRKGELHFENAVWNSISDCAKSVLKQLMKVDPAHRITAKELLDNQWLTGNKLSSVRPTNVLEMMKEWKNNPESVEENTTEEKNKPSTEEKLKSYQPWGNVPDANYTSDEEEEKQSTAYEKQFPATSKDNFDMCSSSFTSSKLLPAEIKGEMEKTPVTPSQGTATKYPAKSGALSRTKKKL
Sequence of ADCK3 (Q8NI60 163-647): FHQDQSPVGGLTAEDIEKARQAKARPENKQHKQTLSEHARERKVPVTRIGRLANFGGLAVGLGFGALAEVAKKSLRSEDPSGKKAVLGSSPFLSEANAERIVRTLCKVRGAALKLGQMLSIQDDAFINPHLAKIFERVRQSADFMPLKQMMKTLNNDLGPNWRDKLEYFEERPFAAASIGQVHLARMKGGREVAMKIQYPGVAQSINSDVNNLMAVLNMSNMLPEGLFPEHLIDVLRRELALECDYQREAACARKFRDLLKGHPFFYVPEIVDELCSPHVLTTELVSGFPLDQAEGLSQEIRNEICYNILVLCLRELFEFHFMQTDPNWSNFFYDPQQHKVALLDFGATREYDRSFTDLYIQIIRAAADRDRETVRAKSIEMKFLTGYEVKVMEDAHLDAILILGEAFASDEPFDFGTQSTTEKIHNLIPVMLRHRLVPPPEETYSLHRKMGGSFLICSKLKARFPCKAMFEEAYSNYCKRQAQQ
Sequence of STK35 (Q8TDR2 whole entry): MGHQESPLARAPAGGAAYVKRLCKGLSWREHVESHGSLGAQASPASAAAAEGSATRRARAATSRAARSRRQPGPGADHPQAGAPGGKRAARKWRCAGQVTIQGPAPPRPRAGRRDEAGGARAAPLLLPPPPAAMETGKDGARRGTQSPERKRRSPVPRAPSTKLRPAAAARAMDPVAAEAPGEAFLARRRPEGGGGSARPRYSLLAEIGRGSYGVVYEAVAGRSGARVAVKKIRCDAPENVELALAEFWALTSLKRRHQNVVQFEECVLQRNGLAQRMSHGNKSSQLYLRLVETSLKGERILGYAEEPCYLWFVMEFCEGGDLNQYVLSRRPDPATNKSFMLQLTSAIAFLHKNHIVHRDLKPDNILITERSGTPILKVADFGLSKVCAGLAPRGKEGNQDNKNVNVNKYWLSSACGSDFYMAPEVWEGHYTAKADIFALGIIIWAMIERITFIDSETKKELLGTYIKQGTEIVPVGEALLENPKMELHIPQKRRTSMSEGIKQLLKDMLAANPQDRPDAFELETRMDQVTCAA
Sequence of JAK1 (JH1domain-catalytic) (P23458 875-1153): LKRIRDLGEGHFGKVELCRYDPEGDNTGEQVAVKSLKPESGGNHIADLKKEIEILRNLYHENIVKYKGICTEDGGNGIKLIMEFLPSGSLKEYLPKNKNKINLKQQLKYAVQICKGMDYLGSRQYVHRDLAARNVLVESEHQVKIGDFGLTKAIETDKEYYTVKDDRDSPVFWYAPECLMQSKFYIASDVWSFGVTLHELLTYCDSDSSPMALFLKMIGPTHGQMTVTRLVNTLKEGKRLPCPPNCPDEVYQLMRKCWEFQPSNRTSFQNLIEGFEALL
Sequence of JAK2 (JH1domain-catalytic) (O60674 849-1124): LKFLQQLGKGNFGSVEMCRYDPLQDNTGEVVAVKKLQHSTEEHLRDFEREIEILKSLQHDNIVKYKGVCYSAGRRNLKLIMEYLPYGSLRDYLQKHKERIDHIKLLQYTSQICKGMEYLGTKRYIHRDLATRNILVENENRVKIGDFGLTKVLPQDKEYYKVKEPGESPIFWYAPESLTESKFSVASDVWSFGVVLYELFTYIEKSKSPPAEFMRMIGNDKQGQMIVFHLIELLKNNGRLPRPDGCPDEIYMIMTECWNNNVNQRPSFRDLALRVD
Sequence of STK16 (O75716 whole entry): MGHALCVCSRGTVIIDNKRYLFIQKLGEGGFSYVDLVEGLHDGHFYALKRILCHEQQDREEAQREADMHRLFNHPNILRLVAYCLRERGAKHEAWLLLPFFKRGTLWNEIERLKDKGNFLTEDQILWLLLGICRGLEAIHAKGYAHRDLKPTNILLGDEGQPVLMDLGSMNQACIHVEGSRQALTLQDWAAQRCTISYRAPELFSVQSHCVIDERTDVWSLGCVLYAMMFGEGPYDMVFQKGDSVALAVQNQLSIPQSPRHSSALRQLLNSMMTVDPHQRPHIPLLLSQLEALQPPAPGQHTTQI
Sequence of CSK (P41240 whole entry): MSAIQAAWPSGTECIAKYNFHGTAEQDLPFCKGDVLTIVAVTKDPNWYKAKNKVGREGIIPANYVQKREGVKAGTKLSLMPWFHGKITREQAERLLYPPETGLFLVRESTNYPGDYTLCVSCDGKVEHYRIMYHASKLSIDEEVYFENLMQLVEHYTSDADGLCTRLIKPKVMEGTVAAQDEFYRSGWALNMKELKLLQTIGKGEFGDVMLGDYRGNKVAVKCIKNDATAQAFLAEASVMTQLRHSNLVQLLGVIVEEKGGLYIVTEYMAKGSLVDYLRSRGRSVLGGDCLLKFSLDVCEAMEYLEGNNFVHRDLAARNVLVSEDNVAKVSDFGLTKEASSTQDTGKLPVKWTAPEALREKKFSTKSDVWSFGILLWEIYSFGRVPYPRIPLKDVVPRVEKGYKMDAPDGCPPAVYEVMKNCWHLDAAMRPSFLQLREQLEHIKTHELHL
Sequence of CDC2L2 (Q9UQ88 whole entry): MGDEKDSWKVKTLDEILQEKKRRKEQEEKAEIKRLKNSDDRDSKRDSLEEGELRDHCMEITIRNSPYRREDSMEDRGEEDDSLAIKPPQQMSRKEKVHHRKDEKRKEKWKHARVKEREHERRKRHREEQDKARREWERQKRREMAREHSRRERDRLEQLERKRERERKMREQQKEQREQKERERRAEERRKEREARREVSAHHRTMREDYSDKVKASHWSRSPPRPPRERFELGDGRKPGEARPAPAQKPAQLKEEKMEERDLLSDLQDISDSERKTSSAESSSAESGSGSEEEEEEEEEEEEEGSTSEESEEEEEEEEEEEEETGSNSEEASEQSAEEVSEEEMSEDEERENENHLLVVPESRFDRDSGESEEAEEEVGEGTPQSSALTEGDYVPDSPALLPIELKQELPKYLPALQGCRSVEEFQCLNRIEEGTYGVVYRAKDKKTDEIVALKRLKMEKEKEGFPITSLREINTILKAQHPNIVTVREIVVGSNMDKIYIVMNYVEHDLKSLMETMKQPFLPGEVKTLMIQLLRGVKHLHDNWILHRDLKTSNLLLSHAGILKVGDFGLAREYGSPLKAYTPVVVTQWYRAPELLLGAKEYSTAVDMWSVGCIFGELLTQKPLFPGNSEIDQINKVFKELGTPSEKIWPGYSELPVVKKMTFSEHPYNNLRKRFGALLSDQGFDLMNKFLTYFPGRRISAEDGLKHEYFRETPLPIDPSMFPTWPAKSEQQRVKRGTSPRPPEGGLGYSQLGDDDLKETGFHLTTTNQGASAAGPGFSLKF
Sequence of MST4 (Q9P289 whole entry): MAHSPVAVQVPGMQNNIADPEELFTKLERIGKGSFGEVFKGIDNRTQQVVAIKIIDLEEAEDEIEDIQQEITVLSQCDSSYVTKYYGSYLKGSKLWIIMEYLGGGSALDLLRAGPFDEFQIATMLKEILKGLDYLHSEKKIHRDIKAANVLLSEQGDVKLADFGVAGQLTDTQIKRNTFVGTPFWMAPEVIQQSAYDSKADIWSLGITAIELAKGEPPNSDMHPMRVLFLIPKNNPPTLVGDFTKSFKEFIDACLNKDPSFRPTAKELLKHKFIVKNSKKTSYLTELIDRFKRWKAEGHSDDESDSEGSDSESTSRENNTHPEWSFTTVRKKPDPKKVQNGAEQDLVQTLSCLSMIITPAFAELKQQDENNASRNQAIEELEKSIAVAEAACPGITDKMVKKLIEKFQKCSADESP

With `COc1ccc(N2C(=O)N(c3c(C)cccc3C)Cc3cnc(Nc4ccc(N5CCN(C)CC5)cc4)nc32)c(OC)c1` [HG-11-136-01] the “KINOMEscan MELK” value (MELK) was 36, the “KINOMEscan CDC2L2” value (CDC2L2) was 83 and the “KINOMEscan STK35” value (STK35) was 49. The “KINOMEscan MAP4K4” value (MAP4K4) was 17, the “KINOMEscan PRKCH” value (PRKCH) was 100 and the “KINOMEscan PRKCE” value (PRKCE) was 61. For the same molecule, the “KINOMEscan INSR” value (INSR) was 48, the “KINOMEscan EGFR (G719C)” value (EGFR (G719C)) was 0.1 and the “KINOMEscan JAK2 (JH1domain-catalytic)” value [1] was 0.75. The “KINOMEscan CSK” value (CSK) was 0.3, the qAC50 [2] was 171 nM and the “Data Mode” value ([2]; curve direction of qAC50 data) was “decreasing”. For the same molecule, the “KINOMEscan ANKK1” value (ANKK1) was 68, the “KINOMEscan CSNK1G3” value (CSNK1G3) was 84 and the “KINOMEscan CAMK1D” value (CAMK1D) was 68. The “KINOMEscan MST4” value (MST4) was 2.8, the “KINOMEscan STK33” value (STK33) was 24 and the “KINOMEscan CDC2L5” value (CDC2L5) was 65. The “KINOMEscan SYK” value (SYK) was 1.2, the “KINOMEscan BMX” value (BMX) was 3 and the “KINOMEscan NEK7” value (NEK7) was 100. The “KINOMEscan STK16” value (STK16) was 5.6, the “KINOMEscan CASK” value (CASK) was 54 and the “KINOMEscan NEK11” value (NEK11) was 21. The “KINOMEscan TYK2 (JH1domain-catalytic)” value [3] was 5.6, the “KINOMEscan CSNK2A2” value (CSNK2A2) was 0.05 and the “KINOMEscan MARK4” value (MARK4) was 32. For the same molecule, the “KINOMEscan TBK1” value (TBK1) was 37, the “KINOMEscan PKAC-beta” value (PKAC-beta) was 66 and the “KINOMEscan DMPK” value (DMPK) was 88. The “KINOMEscan EGFR (L747-S752del, P753S)” value [4] was 0.95, the “KINOMEscan ADCK3” value (ADCK3) was 38 and the “KINOMEscan PIP5K2B” value (PIP5K2B) was 27. The “KINOMEscan WEE2” value (WEE2) was 82, the “KINOMEscan FLT4” value (FLT4) was 6.6 and the “KINOMEscan NIM1” value (NIM1) was 42. For the same molecule, the “KINOMEscan ALK (L1196M)” value (ALK (L1196M)) was 8.2, the “KINOMEscan FLT3 (N841I)” value (FLT3 (N841I)) was 11 and the “KINOMEscan JAK1 (JH1domain-catalytic)” value [5] was 57. The “KINOMEscan SRMS” value (SRMS) was 0, the “KINOMEscan CAMK2B” value (CAMK2B) was 90 and the “KINOMEscan TGFBR1” value (TGFBR1) was 33.
